For data set [1], the target named is Translocator protein (Mus musculus) (UniProt P50637). The data set is described as follows: Inhibition of TSPO in mouse HT22 cells assessed as reduction in amyloid beta (1 to 42) (unknown origin) induced mitochondrial permeability transition pore formation by measuring increase in green to red fluorescence ratio at 5 uM pretreated for 10 mins followed by amyloid beta (1 to 42) stimulation and measured at 1 hr interval for 3 hrs by JC-1 dye based fluorescence assay relative to control. Also on record: scale not given: the % may be the effect or the level left. The data set is classed as cell-based.
Translocator protein (Mus musculus), sequence (P50637 whole entry, looked up): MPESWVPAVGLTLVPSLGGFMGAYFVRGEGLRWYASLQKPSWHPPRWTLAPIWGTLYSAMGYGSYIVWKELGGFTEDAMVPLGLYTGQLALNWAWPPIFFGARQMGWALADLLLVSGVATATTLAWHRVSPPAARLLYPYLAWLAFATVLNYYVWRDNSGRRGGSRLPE

Data set [2] shares this target. As to the kind of experiment: Inhibition of TSPO in mouse HT22 cells assessed as recovery of ATP production at 5 uM preincubated for 10 mins followed by amyloid beta (1 to 42) stimulation and measured after 7 hrs by luciferase based assay relative to control. The data set is classed as cell-based. Also on record: scale not given: the % may be the effect or the level left.

Data set [3] is described as follows: Cytotoxicity against mouse HT22 cells as cell viability at 5 uM after 24 hrs by MTT assay relative to control. The format is cell-based, HT-22. The conditions noted are these: read-out: Activity. On the technique in general: Tetrazolium assays rely on reduction of a dye to a coloured formazan, in cell work by metabolically active cells.

This passage reports Activity and viability results from ChEMBL document CHEMBL4130502, “Discovery of thienopyrrolotriazine derivatives to protect mitochondrial function against Aβ-induced neurotoxicity” (Eur J Med Chem, 2017).

Each structure is given as a SMILES string.

In the case of `CCN(Cc1ccccc1)C(=O)Cn1nc(C)n2c(cc3sc(C)cc32)c1=O`, the Activity in data set [1] worked out at 45%; in data set [2], 9%. The viability at 24 h, 5 µM in data set [3] worked out at 90%.

As to `Cc1cc2c(cc3c(SCC(=O)N4CCN(c5ccccc5)CC4)nnc(C)n32)s1`, the Activity in data set [1] is 69%; in data set [2], -9%. In addition, the viability at 24 h, 5 µM in data set [3] worked out at 99%.

On to `O=C(Cc1coc2ccc3ccccc3c12)NCc1ccco1`, for which the Activity in data set [1] was 85%; in data set [2], -3%. Also, the viability at 24 h, 5 µM in data set [3] amounted to 96%.

With `CCc1nnc(SCC(=O)Nc2ccc(OC)c(OC)c2)c2cc3sc(Cl)cc3n12`, the Activity came to 69% in data set [1] and 7% in data set [2]. Moreover, the viability at 24 h, 5 µM in data set [3] is 94%.

As for `Cn1c(=O)oc2cc(NS(=O)(=O)Cc3ccco3)ccc21`, the figures for the Activity in data set [1] and in data set [2] were 41% and 14%, respectively. In addition, the viability at 24 h, 5 µM in data set [3] was determined as 103%.

Consider `CCc1nn(CC(=O)Nc2ccc(OC)c(OC)c2)c(=O)c2cc3sccc3n12`, for which the Activity in data set [1] is 56%; in data set [2], -17%. In addition, the viability at 24 h, 5 µM in data set [3] worked out at 40%.

In the case of `C=CCN1C(=O)CN=C(c2cccs2)c2c1sc1c2CCC1`, in data set [1], the Activity was 38%.

For `CNC(=O)CN(c1ccc(Br)cc1)S(=O)(=O)c1ccc(C)cc1`, the Activity in data set [1] amounted to 35%.

For `Cc1ccc(S(=O)(=O)Nc2ccc3c(c2)sc(=O)n3C)c(C)c1`, the Activity in data set [1] was determined as 4%.

Regarding `CN1C(=O)CN=C(c2ccc(Cl)cc2)c2cc(Cl)ccc21` [RO-54864], the Activity is 12% in data set [1] and 9% in data set [2]. The viability at 24 h, 5 µM in data set [3] is 100%.

With `Cc1nnc(SCC(=O)NCc2ccccc2)c2cc3sccc3n12`, the Activity in data set [1] turned out to be 48%; in data set [2], 6%. Moreover, the viability at 24 h, 5 µM in data set [3] turned out to be 73%.

As to `CCc1nnc(SCC(=O)N2CCN(c3ccccc3)CC2)c2cc3sc(Cl)cc3n12`, the values for the Activity in data set [1] and in data set [2] were 50% and -2%, respectively. In data set [3], the viability at 24 h, 5 µM worked out at 99%.

As for `CCc1nnc(SCC(=O)N(CC)Cc2ccccc2)c2cc3sccc3n12`, the values for the Activity in data set [1] and in data set [2] were 56% and 1%, respectively. Besides, the viability at 24 h, 5 µM in data set [3] was 99%.

In the case of `C=CCN1C(=O)CN=C(c2ccccc2)c2c1sc(C)c2C`, the Activity in data set [1] is 75%; in data set [2], -2%. In data set [3], the viability at 24 h, 5 µM was 93%.

`Cc1ccc(S(=O)(=O)NCc2cccnc2)c(C)c1`: in data set [1], the Activity came to 0%.

For the molecule `Cc1cc2c(cc3c(SCC(=O)N(C)c4ccccc4)nnc(C)n32)s1`, the values for the Activity in data set [1] and in data set [2] were 56% and 33%, respectively. The viability at 24 h, 5 µM in data set [3] came to 87%.

Turning to `CCc1nnc(SCC(=O)NCc2ccccc2)c2cc3sc(C)cc3n12`, the Activity is 55% in data set [1] and -3% in data set [2]. Also, the viability at 24 h, 5 µM in data set [3] was 29%.

For `CCc1nn(CC(=O)N(C)c2ccccc2)c(=O)c2cc3sccc3n12`, the Activity is 50% in data set [1] and -9% in data set [2]. Further, in data set [3], the viability at 24 h, 5 µM turned out to be 93%.

Take `CCOC(=O)C(C)N1C(=O)CN=C(c2cccc(C)c2)c2c1sc1c2CCCC1` (centres undefined): in data set [1], the Activity came to 0%.

`Cn1c(SCC(=O)NCc2ccccc2)nnc1-c1cc2ccccc2o1`: in data set [1], the Activity was found to be 19%.

As for `C=CCN1C(=O)CN=C(c2ccc(C(C)(C)C)cc2)c2c1sc1c2CCCC1`, the Activity in data set [1] was 14%.

`CCOC(=O)C1=C(C)N/C(=C/c2ccccc2OCc2ccccc2)C1=O`: the Activity in data set [1] came out at 22%.

Regarding `Cc1ccc2c(c1)C(c1ccccc1)=NCC(=O)N2C`, the Activity in data set [1] was 1%.

Turning to `COc1ccc(NC(=O)Cn2nc(C)n3c(cc4sc(C)cc43)c2=O)cc1OC`, the Activity in data set [1] is 52%; in data set [2] it was -8%. In addition, in data set [3], the viability at 24 h, 5 µM worked out at 97%.

For `Cc1noc(C)c1S(=O)(=O)NC(c1ccccc1)c1ccccc1`, the Activity in data set [1] stood at 0%.

For the molecule `CCN(Cc1ccccc1)C(=O)CSc1nnc(C)n2c1cc1sccc12`, the results for the Activity in data set [1] and in data set [2] were 63% and 8%, respectively. The viability at 24 h, 5 µM in data set [3] came to 99%.

Regarding `Cc1nnc(SCC(=O)N2CCN(c3ccccc3)CC2)c2cc3sccc3n12`, the Activity in data set [1] amounted to 59%; in data set [2], 0%. In data set [3], the viability at 24 h, 5 µM is 98%.

With `CCCC(=O)n1nc(-c2ccco2)nc1S(=O)(=O)Cc1ccccc1`, in data set [1], the Activity amounted to 0%.

Consider `Cc1cc2c(cc3c(=O)n(CC(=O)N(C)c4ccccc4)nc(C)n32)s1`, for which the results for the Activity in data set [1] and in data set [2] were 41% and 17%, respectively. Also, in data set [3], the viability at 24 h, 5 µM was 100%.

For `Cc1cc2c(cc3c(=O)n(CC(=O)N(C)C)nc(C)n32)s1`, the Activity worked out at 17% in data set [1] and 0% in data set [2]. The viability at 24 h, 5 µM in data set [3] is 96%.

Take `CCc1nnc(SCC(=O)N(CC)Cc2ccccc2)c2cc3sc(C)cc3n12`: the values for the Activity in data set [1] and in data set [2] were 67% and 25%, respectively. Further, the viability at 24 h, 5 µM in data set [3] stood at 82%.

Turning to `COC(=O)CN(c1ccc(C(C)C)cc1)S(=O)(=O)c1ccc(C)cc1`, the Activity in data set [1] is 67%; in data set [2] it was -1%. The viability at 24 h, 5 µM in data set [3] was 92%.

As to `CCc1nn(CC(=O)N(C)C)c(=O)c2cc3sccc3n12`, the Activity was 12% in data set [1] and -3% in data set [2]. Besides, the viability at 24 h, 5 µM in data set [3] amounted to 98%.

For `Cc1nnc(SCC(=O)Nc2ccccc2)c2cc3sccc3n12`, the Activity in data set [1] was determined as 59%; in data set [2] it was 5%. In addition, in data set [3], the viability at 24 h, 5 µM worked out at 96%.

With `CCc1nn(CC(=O)N(CC)Cc2ccccc2)c(=O)c2cc3sccc3n12`, the Activity in data set [1] is 57%; in data set [2] it was -11%. Further, the viability at 24 h, 5 µM in data set [3] came out at 100%.

In the case of `CCc1nnc(SCC(=O)N2CCN(c3ccccc3)CC2)c2cc3sccc3n12`, the Activity was 53% in data set [1] and -4% in data set [2]. Moreover, in data set [3], the viability at 24 h, 5 µM was 68%.

For `CCc1nnc(SCC(=O)NCc2ccccc2)c2cc3sccc3n12`, the Activity in data set [1] is 50%; in data set [2] it was -15%. Further, in data set [3], the viability at 24 h, 5 µM is 54%.

On to `CN1C(=O)CN=C(c2ccccc2)c2cc(Br)ccc21`, for which the Activity in data set [1] was 0%.

Regarding `O=S(=O)(c1ccccc1Cl)N1CCCC1c1cccs1` (centres undefined), the values for the Activity in data set [1] and in data set [2] were 67% and -61%, respectively. Besides, the viability at 24 h, 5 µM in data set [3] worked out at 114%.

Regarding `COc1ccc(NC(=O)CSc2nnc(C)n3c2cc2sccc23)cc1OC`, the Activity amounted to 55% in data set [1] and 0% in data set [2]. Also, the viability at 24 h, 5 µM in data set [3] was 99%.

With `COc1ccccc1C1NC(=S)NC(C)=C1C(=O)OCc1ccccc1` (centres undefined), the Activity in data set [1] was found to be 56%; in data set [2], 0%. The viability at 24 h, 5 µM in data set [3] worked out at 88%.

For `COc1cc(-c2nnc(SCc3c(F)cccc3Cl)o2)cc(OC)c1OC`, the Activity is 65% in data set [1] and -3% in data set [2]. In data set [3], the viability at 24 h, 5 µM stood at 94%.

`CCc1nnc(SCC(=O)Nc2ccccc2)c2cc3sccc3n12`: the figures for the Activity in data set [1] and in data set [2] were 48% and -3%, respectively. Further, the viability at 24 h, 5 µM in data set [3] came to 91%.

For `CCN(C(=O)CCl)c1ncc(-c2ccc(OC)cc2)s1`, the Activity in data set [1] is 0%.

For the molecule `CCc1nnc(SCC(=O)Nc2ccccc2)c2cc3sc(Cl)cc3n12`, the values for the Activity in data set [1] and in data set [2] were 66% and 4%, respectively. Besides, in data set [3], the viability at 24 h, 5 µM worked out at 95%.

Consider `COC(=O)C1CCc2ccccc2N1C(=O)c1ccc(OC)cc1` (centres undefined), for which the Activity in data set [1] stood at 38%.

Take `O=C(COc1ccc(Cl)cc1)ON=C(c1ccccc1)c1ccccc1`: in data set [1], the Activity was determined as 0%.

In the case of `CCc1nnc(SCC(=O)Nc2ccc(OC)c(OC)c2)c2cc3sccc3n12`, the Activity in data set [1] was 56%; in data set [2], 14%. Further, the viability at 24 h, 5 µM in data set [3] amounted to 82%.

Regarding `CCc1nn(CC(=O)N2CCN(c3ccccc3)CC2)c(=O)c2cc3sccc3n12`, the Activity in data set [1] turned out to be 56%; in data set [2], 9%. For the same molecule, the viability at 24 h, 5 µM in data set [3] came to 91%.

As to `COC(=O)CN1C(=O)C2CCCCC2Sc2ncccc21` (centres undefined), the Activity in data set [1] turned out to be 0%.

As to `C=CCN1C(=O)CN=C(c2ccccc2C)c2cc(CC)sc21`, the Activity in data set [1] stood at 0%.

In the case of `Cc1cc2c(cc3c(SCC(=O)Nc4ccccc4)nnc(C)n32)s1`, the results for the Activity in data set [1] and in data set [2] were 58% and 19%, respectively. Further, in data set [3], the viability at 24 h, 5 µM worked out at 88%.

In the case of `CCc1nnc(SCC(=O)N(C)c2ccccc2)c2cc3sc(Cl)cc3n12`, the Activity was 61% in data set [1] and 22% in data set [2]. Further, the viability at 24 h, 5 µM in data set [3] came out at 78%.

`Cc1cc2c(cc3c(SCC(=O)NCc4ccccc4)nnc(C)n32)s1`: the results for the Activity in data set [1] and in data set [2] were 35% and -50%, respectively. The viability at 24 h, 5 µM in data set [3] came out at 61%.

For `CCOC(=O)C(C)N1C(=O)CN=C(c2ccc(OC)cc2)c2c1sc1c2CCCC1` (centres undefined), the Activity in data set [1] was 24%.
